By IC50 is commonly meant the midpoint of a concentration-inhibition curve. High values mean weaker potency, low ones greater potency.

Each structure is given as a SMILES string.

This assay has as its target T1, Kinesin-like protein KIF18A (Homo sapiens, UniProt Q8NI77).
T1 sequence (Q8NI77 whole entry): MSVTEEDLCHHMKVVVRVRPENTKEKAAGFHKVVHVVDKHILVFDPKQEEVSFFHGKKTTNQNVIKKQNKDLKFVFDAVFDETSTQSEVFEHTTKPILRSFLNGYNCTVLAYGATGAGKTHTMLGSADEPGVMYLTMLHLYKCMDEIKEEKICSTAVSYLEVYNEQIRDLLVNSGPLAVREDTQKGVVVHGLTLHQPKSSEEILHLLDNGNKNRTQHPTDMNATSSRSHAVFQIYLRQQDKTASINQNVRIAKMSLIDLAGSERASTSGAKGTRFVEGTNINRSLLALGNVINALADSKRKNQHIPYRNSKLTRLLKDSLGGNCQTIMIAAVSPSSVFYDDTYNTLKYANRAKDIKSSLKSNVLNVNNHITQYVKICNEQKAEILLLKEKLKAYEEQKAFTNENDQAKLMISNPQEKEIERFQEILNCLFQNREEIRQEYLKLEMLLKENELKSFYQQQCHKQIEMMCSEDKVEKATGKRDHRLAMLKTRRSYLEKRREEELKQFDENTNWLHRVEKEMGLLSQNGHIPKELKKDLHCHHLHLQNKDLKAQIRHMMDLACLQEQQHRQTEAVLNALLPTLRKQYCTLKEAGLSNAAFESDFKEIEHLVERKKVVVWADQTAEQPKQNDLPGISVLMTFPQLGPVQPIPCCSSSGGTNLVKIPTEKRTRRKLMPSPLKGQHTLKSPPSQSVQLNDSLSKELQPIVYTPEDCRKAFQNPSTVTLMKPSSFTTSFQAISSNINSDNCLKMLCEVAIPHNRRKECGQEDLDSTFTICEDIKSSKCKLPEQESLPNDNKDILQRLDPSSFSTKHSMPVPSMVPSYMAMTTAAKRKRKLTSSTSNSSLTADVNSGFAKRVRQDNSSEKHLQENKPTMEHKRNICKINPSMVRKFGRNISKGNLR
Nature of the assay: Inhibitory Activity Assay. The protocol: In this experiment, an ADP-Glo kit was used to detect the inhibitory activity of the compounds against KIF18A. Each compound was prepared into a 10 mM stock solution with DMSO, which was then diluted at 1:5 to obtain 9 gradients with the initial final concentration set at 10 μM. Meanwhile, a control group and a blank group were also set up. The reaction buffer consisted of 15 mM Tris (pH 7.5), 10 mM MgCl2, and 0.01% Pluronic F-68. […] Finally, the ADP-Glo reagent was added to detect the luminescence intensity, where the luminescence intensity is directly proportional to the ADP content. Inhibition rate (%)=(1−Sample signal)/DMSO signal×100. Sample signal is the value of the compound group, and DMSO signal is the value of the DMSO control group. Then, the inhibition rate at each concentration was calculated, and the IC50 was determined by fitting using the GraphPadPrism 7.0 software.
`CS(=O)(=O)Nc1ccc(C(=O)Nc2cn3ccnc3c(N3CCC(F)(F)CC3)n2)c(N2CC3CCC(C3)C2)c1` [US20250382298, Compound 19] displayed an IC50 of 26.8 nM. This lies in the double-digit nanomolar range.
In turn, `O=C(Nc1cc2cccnc2c(N2CCC(F)(F)CC2)n1)c1ccc(NS(=O)(=O)CCO)cc1N1CCC2(CC1)CC2` [US20250382298, Compound 21] registered an IC50 of 10.7 nM.
Under `O=C(Nc1cn2ccnc2c(N2CCC3(CC2)CC3)n1)c1ccc(NS(=O)(=O)CCO)cc1N1CCC2(CC1)CC2` [US20250382298, Compound 31] stands 55.3 nM; under `CS(=O)(=O)Nc1ccc(C(=O)Nc2cc3cccnc3c(N3CCC(F)(F)CC3)n2)c(N2CCC3(CC2)CC3)c1` [US20250382298, Compound 32], 117 nM; under `CS(=O)(=O)Nc1ccc(C(=O)Nc2cc3cccnc3c(N3CCC(F)(F)CC3)n2)c(N2CC3CCC(C3)C2)c1` [US20250382298, Compound 33], 111 nM.
To `O=C(Nc1cn2c(F)cnc2c(N2CCC(F)(F)CC2)n1)c1ccc(NS(=O)(=O)CCO)cc1N1CCC2(CC1)CC2` [US20250382298, Compound 34] belongs 44.3 nM; to `O=C(Nc1cc2nccnc2c(N2CCC(F)(F)CC2)n1)c1ccc(NS(=O)(=O)CCO)cc1N1CCC2(CC1)CC2` [US20250382298, Compound 39], 32.2 nM; to `O=C(Nc1cn2c(F)cnc2c(N2CCC(F)(F)CC2)n1)c1ccc(NS(=O)(=O)CCO)cc1N1CC2CCC(C2)C1` [US20250382298, Compound 51], 10 nM.
Under `CS(=O)(=O)Nc1ccc(C(=O)Nc2cc3nccnc3c(N3CCC(F)(F)CC3)n2)c(N2CC3CCC(C3)C2)c1` [US20250382298, Compound 72] stands 134 nM.

Values taken from BindingDB's records for patent US20250382298 (Suzhou Genhouse Bio Co., 2025).
